Reference: US20080220084A1, “COMBINATION THERAPY FOR ALLEVIATING PAIN-RELATED CONDITIONS” (Pfantastic Medical Research Institute, LLC, priority 2007, published 2008)

Tested on: chronic low back pain
Experiment: Treatment of low back pain (herniated disc, lumbar spinal canal stenosis), single-subject case
Assay type: in vivo, human
Conditions: person, before the composition
Description: The acute pain was managed by a combination of pain killer medication and a series of physical therapies at that time. However, chronic low back pain remained ever since. […] The patient was also subjected to a series of disc decompression treatments (20 treatment sessions).
No medication and other treatment were applied prior to taking the composition of the present invention. Two pills (0.5 g each) of the composition of the present invention were taken by the patient every morning and at night (twice a day). Each pill was composed of Rhizoma Gastrodiae Elatae (˜30-60 mg), dry powder of Manitis (˜70-105 mg), dry powder of Agkistrodon seu Bungarus (˜25-40 mg), roots of Radix Aconiti Lateralis Preparata (˜50-90 mg) and Radix Paeoniae Lactiflorae (˜50-90 mg), Herba Asari cum Radice (˜25-40 mg), Cornu cervi Parvum (˜70-100 mg), Eupolyphaga seu Opisthoplatia (˜25-45 mg), and Sulindac (30 mg). Total daily dosage of Sulindac was 120 mg, which is lower than recommended dosage (400 mg/day). Sulindac is a NSAID for the treatment of arthritis, but not proposed for the treatment of sciatica nerve pain.

`Cc1ccc(-c2cc(C(F)(F)F)nn2-c2ccc(S(N)(=O)=O)cc2)cc1` [Celebrex] was tested, and the “pain reduction by earlier prescribed medication” value was “not effective in reducing the pain”.
